Read-outs that look alike come from different tables or passages of the source.
What was measured:
[1] = target: recombinant human dual expressed Avi PRMT5/His-MEP50 protein (Homo sapiens (Human), UniProt O14744); assay: HTRF binding assay in presence of MTA; settings: 30 μM MTA
Description: The PRMT5 binding activity of compounds of the present invention was determined using an HTRF binding assay or SPR assay.
A recombinant human dual expressed Avi PRMT5/His-MEP50) protein (corresponding to amino acids for PRMT5 2-637, and 2-342 for MEP50 expressed in baculovirus) was incubated with target fragments in final buffer (25 mM ADA pH 7.2, 30 μM MTA, 1 mM TCEP, 50 mM NaCl, 0.002% Tween, 5 nM proprietary Tracer binding compound prepared in-house), overnight at 2-8° C. After overnight incubation the binding is monitored after the addition of 0.5 nM Anti-His-Tb (Cisbio) after 1 hr incubation at RT (˜20-24 hrs total binding time). The HTRF signal was measured using a Clariostar reader (BMG) excitation filter (Ex Tr), dichroic filter (LP TP) and emission filters (F 665-10 and F 620-10) manufacturer's instructions. The HTRF ratio was calculated using the formula: [emission 665/emission 620]*10000.

PRMT5/MEP50 complex = PRMT5/MEP50 complex (Homo sapiens (Human), UniProt O14744); assay: PRMT5:MEP50 FlashPlate Assay; format: biochemical
Description: The PRMT5 inhibitory activity of compounds of the present invention was determined using a PRMT5:MEP50 FlashPlate Assay (Reaction Biology Corporation).
The assay uses purified human, PRMT5 enzyme to convert S-adenosyl-L-[methyl-^3H]methionine plus histone H4 L-arginine to S-adenosyl-L-homocysteine plus histone H4 [methyl-^3H]-L-arginine. The assay was carried out using Streptavidin-coated FlashPlates (Perkin Elmer), which contained a scintillant embedded in the plastic of the plate. The histone H4 peptide substrate was conjugated with biotin, which binds to the streptavidin-coated well of the plate, placing the H4 peptide in close proximity to the side well and the scintillant. The transfer of the tritiated methyl group from S-adenosyl-L-[methyl-^3H]methionine to the bound histone H4 peptide generated a radiolabeled histone H4, which was quantitated by measuring in a scintillation counter to determine the activity of PRMT5 enzyme in the presence and absence of compound. […] Briefly, compounds of the present invention were solubilized in 100% DMSO at a highest concentration of 10 mM. For IC, determinations, the initial starting concentration for the serial dilutions of each compound was 50 μM. Control samples lacking compound, PRMT5/MEP50 complex or various reaction components also were prepared and processed in parallel with compound test samples. SAH was used as a positive control for assay validation. To measure PRMT5 inhibitory activity, 3 nM PRMT5/MEP50 complex (Reaction Biology Corporation) was preincubated with test compound in assay buffer containing 40 nM histone H4 peptide (amino acids 1-15)-Biotin conjugate for 20 min at room temperature. The enzymatic reaction was initiated by adding 1 μM tritiated S-adenosyl methionine (final concentration) and the reaction is allowed to proceed for 20 min. The reaction was stopped and the amount of bound, tritiated H4 peptide in each sample was determined using a scintillation counter. The IC50 value for each compound was calculated from each 10-point dose-response curve for samples plus and minus MTA using GraphPad Prism software and the results for exemplary compounds of Formula (I) is shown in Table 9a.

[2] = histone H4 peptide, absence of MTA, read-out: IC50
[3] = read-out: IC50 + 2 μM MTA, histone H4 peptide, presence of 2 μM MTA
[4] = IC50 + 2 μM MTA, histone H4 peptide, presence of 2 μM MTA

PRMT5/MEP50 complex, sequence (O14744 whole entry): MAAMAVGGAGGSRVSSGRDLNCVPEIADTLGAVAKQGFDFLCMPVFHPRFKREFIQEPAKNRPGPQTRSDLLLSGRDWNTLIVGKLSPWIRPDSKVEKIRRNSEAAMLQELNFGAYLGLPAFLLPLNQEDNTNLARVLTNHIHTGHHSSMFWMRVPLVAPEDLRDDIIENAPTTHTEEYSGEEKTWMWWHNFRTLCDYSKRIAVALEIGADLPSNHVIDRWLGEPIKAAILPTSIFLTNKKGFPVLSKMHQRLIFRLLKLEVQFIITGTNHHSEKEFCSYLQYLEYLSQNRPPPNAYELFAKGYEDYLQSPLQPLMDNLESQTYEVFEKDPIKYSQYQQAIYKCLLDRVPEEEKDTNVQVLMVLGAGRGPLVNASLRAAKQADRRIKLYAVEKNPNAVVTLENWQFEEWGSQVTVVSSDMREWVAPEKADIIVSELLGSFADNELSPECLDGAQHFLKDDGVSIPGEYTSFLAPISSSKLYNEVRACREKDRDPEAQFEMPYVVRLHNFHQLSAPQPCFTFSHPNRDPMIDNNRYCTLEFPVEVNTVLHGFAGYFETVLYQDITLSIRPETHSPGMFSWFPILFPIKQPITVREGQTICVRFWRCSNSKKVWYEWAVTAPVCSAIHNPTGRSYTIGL
PRMT5/MEP50 complex, sequence (Q9BQA1 whole entry partner): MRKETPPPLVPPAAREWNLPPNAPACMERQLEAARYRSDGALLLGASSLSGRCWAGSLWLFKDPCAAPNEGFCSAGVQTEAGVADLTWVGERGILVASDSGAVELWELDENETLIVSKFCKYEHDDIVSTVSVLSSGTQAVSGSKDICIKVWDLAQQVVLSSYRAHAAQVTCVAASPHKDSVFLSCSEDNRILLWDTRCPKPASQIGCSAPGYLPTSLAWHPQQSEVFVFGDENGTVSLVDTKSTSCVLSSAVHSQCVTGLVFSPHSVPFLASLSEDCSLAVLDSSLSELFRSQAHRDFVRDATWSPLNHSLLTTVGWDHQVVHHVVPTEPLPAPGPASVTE
recombinant human dual expressed Avi PRMT5/His-MEP50 protein, sequence (O14744 2-637): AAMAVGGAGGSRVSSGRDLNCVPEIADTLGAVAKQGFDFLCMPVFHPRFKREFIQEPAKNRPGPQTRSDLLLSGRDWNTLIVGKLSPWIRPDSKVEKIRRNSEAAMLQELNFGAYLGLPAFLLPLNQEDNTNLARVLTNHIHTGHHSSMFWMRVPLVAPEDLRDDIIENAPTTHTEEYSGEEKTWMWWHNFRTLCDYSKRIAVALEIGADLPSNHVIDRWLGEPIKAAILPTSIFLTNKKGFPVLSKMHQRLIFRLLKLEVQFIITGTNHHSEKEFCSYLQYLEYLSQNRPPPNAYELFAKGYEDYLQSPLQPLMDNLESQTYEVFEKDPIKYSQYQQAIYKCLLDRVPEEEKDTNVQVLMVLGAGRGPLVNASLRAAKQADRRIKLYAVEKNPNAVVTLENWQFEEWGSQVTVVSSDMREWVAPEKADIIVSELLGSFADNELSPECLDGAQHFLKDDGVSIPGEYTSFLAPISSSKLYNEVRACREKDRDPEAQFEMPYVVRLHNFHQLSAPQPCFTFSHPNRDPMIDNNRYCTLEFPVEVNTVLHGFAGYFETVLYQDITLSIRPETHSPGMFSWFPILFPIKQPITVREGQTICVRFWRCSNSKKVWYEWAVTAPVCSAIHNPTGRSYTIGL
recombinant human dual expressed Avi PRMT5/His-MEP50 protein, sequence (Q9BQA1 2-342 partner): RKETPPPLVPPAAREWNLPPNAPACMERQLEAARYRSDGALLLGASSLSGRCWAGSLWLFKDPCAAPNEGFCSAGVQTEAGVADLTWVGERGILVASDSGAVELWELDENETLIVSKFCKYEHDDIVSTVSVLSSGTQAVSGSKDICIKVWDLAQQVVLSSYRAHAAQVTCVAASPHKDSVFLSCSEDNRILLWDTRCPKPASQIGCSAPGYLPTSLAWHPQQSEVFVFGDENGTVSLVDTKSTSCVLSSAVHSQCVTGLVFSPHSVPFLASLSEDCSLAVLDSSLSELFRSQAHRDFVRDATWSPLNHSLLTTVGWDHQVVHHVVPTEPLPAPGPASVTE

Structure (SMILES) | IC50 [1] | further results
Cc1cc(N)nc2cc(-c3ccccc3)cnc12 [Example 1-1, 4-methyl-7-phenyl-1,5-naphthyridin-2-amine] | 17.2 µM | 
Cc1cc(N)nc2cc(-c3ccccn3)cnc12 [Example 1-2, 4-methyl-7-(pyridin-2-yl)-1,5-naphthyridin-2-amine] | 82 µM | 
Cc1cc(N)nc2cc(-c3cccnc3)cnc12 [Example 1-3, 4-methyl-7-(pyridin-3-yl)-1,5-paphthyridin-2-amine] | 2.08 µM | 
Cc1cc(N)nc2cc(-c3cccnn3)cnc12 [Example 1-4, 4-methyl-7-(pyridazin-3-yl)-1,5-naphthyridin-2-amine] | 7.46 µM | 
Cc1cc(N)nc2cc(-c3ccsn3)cnc12 [Example 1-5, 7-(isothiazol-3-yl)-4-methyl-1,5-naphtbyridin-2-amine] | 55.5 µM | 
Cc1cc(N)nc2cc(-c3cncs3)cnc12 [Example 1-6, 4-methyl-7-(thiazol-5-yl)-1,5-naphthyridin-2-amine] | 51 µM | 
Cc1cc(N)nc2cc(-c3cnn(C)c3)cnc12 [Example 1-7, 4-methyl-7-(1-methyl-1H-pyrazol-4-yl)-1,5-naphthyridin-2-amine] | 7.92 µM | 
Cc1cc(N)nc2cc(Cc3ccccc3)cnc12 [Example 2-1, 7-benzyl-4-methyl-1,5-naphthyridin-2-amine] | 6.64 µM | 
Cc1ccccc1Cc1cnc2c(C)cc(N)nc2c1 [Example 2-5, 4-methyl-7-(2-methylbenzyl)-1,5-naphtbyridin-2-amine] | 8.83 µM | 
Cc1cc(N)nc2cc(Cc3ccccn3)cnc12 [Example 2-6, 4-methyl-7-(2-pyridylmethyl)-1,5-naphthyridin-2-amine] | 2.85 µM | 
Cc1cc(N)nc2cc(Cc3ccncc3)cnc12 [Example 2-8, 4-methyl-7-(4-pyridylmethyl)-1,5-naphthyridin-2-amine] | 35.5 µM | 
Cc1cc(N)nc2cc(Cc3cscn3)cnc12 [Example 2-10, 4-methyl-7-(thiazol-4-ylmethyl)-1,5-naphthyridin-2-amine] | 2.14 µM | 
Cc1cc(N)nc2cc(Oc3ccccc3)cnc12 [Example 3-1, 4-methyl-7-phenoxy-1,5-naphthyridin-2-amine] | 8.99 µM | 
Cc1cc(N)nc2cc(Oc3ccccc3F)cnc12 [Example 3-2, 7-(2-fluorophenoxy)-4-methyl-1,5-naphthyridin-2-amine] | 5.11 µM | 
Cc1cc(N)nc2cc(Oc3ccccc3Cl)cnc12 [Example 3-3, 7-(2-chlorophenoxy)-4-methyl-1,5-naphthyridin-2-amine] | 4.8 µM | 
Cc1cc(N)nc2cc(Oc3ccccc3C#N)cnc12 [Example 3-4, 2-((6-amino-8-methyl-1,5-naphthyridin-3-yl)oxy)benzonitrile] | 33.9 µM | 
Cc1ccccc1Oc1cnc2c(C)cc(N)nc2c1 [Example 3-5, 4-methyl-7-(2-methylphenoxy)-1,5-naphtbyridin-2-amine] | 39.6 µM | 
Cc1cc(N)nc2cc(Oc3ccccn3)cnc12 [Example 3-6, 4-methyl-7-(pyridin-2-yloxy)-1,5-naphthyridin-2-amine] | 40.6 µM | 
Cc1cc(N)nc2cc(Oc3ccncc3)cnc12 [Example 3-8, 4-methyl-7-(pyridin-4-yloxy)-1,5-naphtbyridin-2-amine] | 84 µM | 
Cc1cc(N)nc2ccc(-c3ccccn3)nc12 [Example 4-2, 4-methyl-6-(2-pyridyl)-1,5-naphthyridin-2-amine] | 13.9 µM | 
Cc1cc(N)nc2ccc(-c3cccnc3)nc12 [Example 4-3, 4-methyl-6-(3-pyridyl)-1,5-naphthyridin-2-amine] | 23.9 µM | 

Structure (SMILES) | IC50 [1] | further results
Cc1cc(N)nc2ccc(-c3cncs3)nc12 [Example 4-4, 4-methyl-6-thiazol-5-yl-1,5-naphthyridin-2-amine] | 29.6 µM | 
Cc1cc(N)nc2ccc(-c3cnn(C)c3)nc12 [Example 4-5, 4-methyl-6-(1-methylpyrazol-4-yl)-1,5-naphthyridin-2-amine] | 64.1 µM | 
Cc1cc(N)nc2ccc(-c3cnsc3)nc12 [Example 4-6, 6-isothiazol-4-yl-4-methyl-1,5-naphthyridin-2-amine] | 21.8 µM | 
Cc1cc(N)nc2ccc(-c3ccc(F)cc3)nc12 [Example 4-9, 6-(4-fluorophenyl)-4-methyl-1,5-naphthyridin-2-amine] | 14 µM | 
Cc1cc(N)nc2ccc(-c3ccsn3)nc12 [Example 4-10, 6-isothiazol-3-yl-4-methyl-1,5-naphthyridin-2-amine] | 13.5 µM | 
CNc1ccc2nc(N)cc(C)c2n1 [Example 5-1, N^2,8-dimethyl-1,5-naphthyridine-2,6-diamine] | ≥ 100 µM | 
Cc1cc(N)nc2ccc(NC3CCC3)nc12 [Example 5-3, N^6-cyclobutyl-4-methyl-1,5-naphthyridine-2,6-diamine] | 87.9 µM | 
Nc1ccc2cc(Cl)ncc2n1 [Example 6-1, 6-chloro-1,7-naphthyridin-2-amine] | ≥ 100 µM | 
Cc1cc(N)nc2cc(C(C#N)N3C(=O)c4ccccc4C3=O)cnc12 (stereo not drawn) [Example 7-7, 2-(6-amino-8-methyl-1,5-naphthyridin-3-yl)-2-(1,3-dioxoisoindolin-2-yl)acetonitrile] | 0.024 µM | IC50 (PRMT5/MEP50 complex; [2]): > 300 µM; IC50 (PRMT5/MEP50 complex; [3]): 2.39 µM
Nc1ccc2c(n1)CN(c1cccnc1)CC2 [Example 11-1, 7-(3-pyridyl)-6,8-dihydro-5H-1,7-naphthyridin-2-amine] | 3.68 µM | 
Nc1ccc2c(n1)CN(c1cncc(Oc3ccccc3)c1)CC2 [Example 11-2, 7-(5-phenoxy-3-pyridyl)-6,8-dihydro-5H-1,7-naphthyridin-2-amine] | 0.073 µM | IC50 (PRMT5/MEP50 complex; [3]): 5.8 µM
Cn1cc(N2CCc3cc(F)c(N)nc3C2)cn1 [Example 11-3, 3-fluoro-7-(1-methyl-1H-pyrazol-4-yl)-5,6,7,8-tetrahydro-1,7-naphthyridin-2-amine] | ≥ 100 µM | 
Cn1ncc(N2CCc3cc(F)c(N)nc3C2)c1-c1ccccc1C#N [Example 11-4, 2-(4-(2-amino-3-fluoro-5,6-dihydro-1,7-naphthyridin-7(8H)-yl)-1-methyl-1H-pyrazol-5-yl)benzonitrile] | 1.43 µM | IC50 (PRMT5/MEP50 complex; [2]): > 300 µM; IC50 (PRMT5/MEP50 complex; [3]): 79.8 µM
Cc1cc2[nH]c(NC(=O)c3ccccc3)cc2nc1N [Example 12-2, N-(5-amino-6-methyl-1H-pyrrolo[3,2-b]pyridin-2-yl)benzamide] | 5.46 µM | IC50 (PRMT5/MEP50 complex; [2]): 60.2 µM; IC50 (PRMT5/MEP50 complex; [3]): 44.7 µM
Nc1ccc2[nH]c(NC(=O)c3ccccc3)cc2n1 [Example 12-3, N-(5-amino-1H-pyrrolo[3,2-b]pyridin-2-yl)benzamide] | 18.3 µM | IC50 (PRMT5/MEP50 complex; [2]): 95.9 µM; IC50 (PRMT5/MEP50 complex; [3]): 97.7 µM
Cc1cc2[nH]c(-n3cnc(Br)n3)cc2nc1N [Example 13-2, 2-(3-bromo-1,2,4-triazol-1-yl)-6-methyl-1H-pyrrolo[3,2-b]pyridin-5-amine] | 4.27 µM | IC50 (PRMT5/MEP50 complex; [4]): 72.8 µM; IC50 (PRMT5/MEP50 complex; [2]): 83.8 µM
Cc1cc2[nH]c(N3CCN(C)C3=O)cc2nc1N [Example 13-5, 1-(5-amino-6-methyl-1H-pyrrolo[3,2-b]pyridin-2-yl)-3-methyl-imidazolidin-2-one] | 31.8 µM | IC50 (PRMT5/MEP50 complex; [4]): 70 µM; IC50 (PRMT5/MEP50 complex; [2]): > 300 µM
Cc1cc2[nH]c(N3CCNC3=O)cc2nc1N [Example 13-6, 1-(5-amino-6-methyl-1H-pyrrolo[3,2-b]pyridin-2-yl)imidazolidin-2-one] | 6.69 µM | IC50 (PRMT5/MEP50 complex; [4]): 183 µM; IC50 (PRMT5/MEP50 complex; [2]): 60.3 µM
Cc1cc2c(cc(CNC(=O)c3ccccc3)n2C)nc1N [Example 15-3, N-[(5-amino-1,6-dimethyl-pyrrolo[3,2-b]pyridin-2-yl)methyl]benzamide] | 0.138 µM | 
C#Cc1c(CNC(=O)c2ccccc2)[nH]c2cc(C)c(N)nc12 [Example 15-4, N-((5-amino-3-ethynyl-6-methyl-1H-pyrrolo[3,2-b]pyridin-2-yl)methyl)benzamide] | 17 µM | 
CC(=O)NCc1cc2nc(N)c(C)cc2n1C(C)=O [Example 15-7, N-((1-acetyl-5-amino-6-methyl-1H-pyrrolo[3,2-b]pyridin-2-yl)methyl)acetamide] | 0.581 µM | 
